Laboratory results reported in patent US8999931B2, “Pharmaceutical composition using gonadotropin-releasing hormone (GNRH) combined variants as immunogen” (Centro de Ingenieria Genetica y Biotecnologia, priority 2008, dated 2015).
“And” between values parts separate entries of the source, which are not always exact repeats. Equal entries are not always repeated. Where two headings read alike, the source gives them in different places.

How the values were obtained:
[1] = system: native GnRH peptide; format: in vivo, Copenhagen rats; details: for anti-GnRH antibodies titers: 750 μg total peptide, fortnightly s.c.
[2] = system: testicles; experiment: Testicles weight evaluation at slaughter (100 days), treatment effect; format: in vivo, Copenhagen rats; details: mean testicles weight vs placebo at slaughter (100 days); healthy adult rats, 750 μg total peptide
[3] = system: prostate; experiment: Prostate weight evaluation at slaughter (100 days), treatment effect; format: in vivo, Copenhagen rats; details: mean prostate weight vs placebo at slaughter (100 days); healthy adult rats, 750 μg total peptide
[4] = system: testosterone; experiment: Testosterone levels determination / testosterone ablation after immunization; format: in vivo; details: oily adjuvant (Montanide type); 2 immunizations in prepuberous animals, 3 or 4 immunizations in adult animals

## IPGVAYTSPEVAWVGGGGQHWSYPLRP (GnRHm1 bonded at its amino-terminal end to the peptide P48 of the protein P64K of Neisseria meningitidis) [P48-P64K-GnRHm1]
[1]; after the first immunization, s.c., Montanide adjuvant
  seroconversion (anti-GnRH): 100% and 90%
[2]
  Effect on Testicles (Etreatment=1−(Ptreatment/Pplacebo)): 0.49
[3]
  Effect on Prostate (Etreatment=1−(Ptreatment/Pplacebo)): 0.28

## QHWSYPLRPGGGQYIKANSKFIGITEL (Chemical synthesis of the peptide.GnRHm1Tox.) [GnRHm1-TT]
[1]; after the fourth immunization, oily adjuvant (Montanide type)
  seroconversion (anti-GnRH): 90%
[1]; after the third immunization, s.c., Montanide adjuvant
  seroconversion (anti-GnRH): 90%
[1]; doses equal to the TT-GnRHm1 variant
  anti-GnRH response relative to TT-GnRHm1 variant: 10 times weaker
[1]; over the whole experiment (5 immunizations, 100 days)
  highest anti-GnRH antibodies titers reached: 1/1000
[4]
  testosterone ablation: potent effect
[2]
  Effect on Testicles (Etreatment=1−(Ptreatment/Pplacebo)): 0.43
[3]
  Effect on Prostate (Etreatment=1−(Ptreatment/Pplacebo)): 0.41

## QYIKANSKFIGITELGGQ HWSYPLRPG (QYIKANSKFIGITELGGQHWSYPLRPG; GnRHm1 bonded at its amino-terminal end to epitope 830-844 of the tetanus toxoid) [TT-GnRHm1]
[1]; after 75 days of the beginning of experiment
  anti-GnRH antibodies titers: 1/6000
[1]; after 100 days / at the end of the experiment
  anti-GnRH antibodies titers: 1/12000
[2]
  Effect on Testicles (Etreatment=1−(Ptreatment/Pplacebo)): 0.55
[3]
  Effect on Prostate (Etreatment=1−(Ptreatment/Pplacebo)): 0.42
